Experimental data taken from patent publication US20240400542A1 (University of Virginia Patent Foundation, priority 2021, published 2024).

Columns and labels:
Jurkat proteomes = test: In vitro competition of KY-26 labeling, gel-based chemical proteomics; assay type: binding, human; conditions: pretreatment 30 min, 37° C.: ATP 10-0.5 mM, KY-424 1 and 0.5 mM, then KY-26 5 μM
Experimental: (§1) Briefly, Jurkat cells were grown to 80% confluency and treated with either DMSO or probe at the designated final concentration (KY-26 or XO44, 1,000× stock in serum-free media (SFM)) and incubated at 37° C. with 5% CO2 for 30 min. Cells were harvested and lysed in PBS buffer containing EDTA-free protease inhibitors. Addition of the rhodamine fluorescent tag was accomplished by CuAAC and fluorescently labeled proteins visualized by SDS-PAGE and in-gel fluorescence scanning. For KY-26 and XO44 live cell treated samples, 50 μL aliquots of proteome were used for gel experiments. […]
(§2) Cell pellets were lysed in PBS buffer (PBS+a protease inhibitor (sold under the tradename PIERCE™, Thermo Fisher Scientific, Waltham, Massachusetts, United States of America), EDTA free) by sonicating 3 times for 1 second×20% amplitude. […] Protein concentrations were measured using the Bio-Rad DC protein assay (Bio-Rad Laboratories, Hercules, California, United States of America), and fractions were diluted to a concentration of 1 mg/mL in PBS. […] 30 μL of each sample were separated by SDS-PAGE and analyzed by in-gel fluorescence scanning for the rhodamine azide tag. […]
In addition to solution reactivity, activity of KY-26 and XO44 in proteomes was compared using gel-based chemical proteomics. […] Probe-modified proteins were visualized by SDS-PAGE and in-gel fluorescence scanning. […]

[1] = HPLC solution reactivity of probe with p-cresol (tyrosine mimetic); assay type: physicochemical; conditions: UV 254 nm, TMG base, 0° C., longest time point tested 90 min
Experimental: (§3) Briefly, reaction progress of KY-26 or XO44 with p-cresol or n-butylamine (16.5 μmol, 3.3 eq.) in the presence of TMG base (1,1,3,3-tetramethylguanidine, 1.1 eq) was evaluated by monitoring probe consumption and quantified based on the signal from the caffeine standard using HPLC. Synthetic peptide reactions were conducted by mixing the peptide (Ac-RLNERHYGGLTGLNK-NH2, 50 nmol, 1.0 eq.) with 1.1 eq of TMG. KY-26 (550 nmol, 11.0 eq) was added to the mixture and the reaction was kept at 37° C. until the reaction achieved at least 50% conversion.
(§4) More particularly, an acetonitrile solution of p-cresol or n-butylamine (16.5 μmol, 3.3 eq.) was mixed with 1.1 eq of TMG. KY-26 or XO44 in ACN:DMF=6:4 (5 μmol, 1.0 eq.) was added to the mixture and the reaction was kept at 0° C. The final molarity for KY-26 or XO44 is 10 mM. Aliquots (50 μl) of the reaction were taken and quenched by adding acetic acid (0.5 M final, 5.0 μmol) and caffeine standard (0.05 M final, 0.5 μmol) at ten-minute intervals for 1.5 hrs. 1.0 μL sample was injected and analyzed by reverse-phase HPLC with mobile phases A (H2O, 0.1% AcOH) and B (CH3CN, 0.1% AcOH) with a gradient of 0-15-85-100% B in 0-0.5-6.5-7 min. UV measurements taken at 254 nm. Reaction progress was evaluated by monitoring KY-26 or XO44 consumption and quantified based on the signal from the caffeine standard. […]

[2] = HPLC solution reactivity of probe with n-butylamine (lysine mimetic); assay type: physicochemical; conditions: TMG base, 0° C., KY-26 compared with p-cresol
Experimental: as §3, §4

Jurkat cells = test: Gel-based chemical proteomics, live cell probe labeling; parameters: species or system human
Experimental: as §1, with “experiments. For KY-26 lysate labeling, 49 μL aliquots of cell lysate were used for each dose and time point before adding 1 μL of 50× KY-26 stock (5 μM final) and incubated for 30 min at 37° C.” for “experiments.”
as §2

recombinant human CDK2 = recombinant human CDK2 (Homo sapiens, UniProt P24941); test: Competition of KY-26 ABP labeling of recombinant CDK2 in HEK293T lysates; assay type: binding; conditions: then 2.5 μM KY-26 30 minutes
Experimental: Gateway cloning was performed to generate recombinant human CDK2 (containing a FLAG tag) overexpression plasmid (see FIG. 11) and recombinant human CDK2 was overexpressed in HEK293T mammalian cells. KY-26 and TH211 activity-based probe (ABP) labeling of the recombinant human CDK2 was performed. Briefly, recombinant human CDK2 overexpressed HEK293T lysates were incubated […] with various concentrations of TH211 (a broad-spectrum kinase ABP) or KY-26 (a targeted covalent kinase ABP) for 30- and 60-minutes. Western blots confirmed CDK2 overexpression with rabbit anti-FLAG and goat anti-rabbit 650 antibodies for samples incubated with KY-26 or TH211 probes.
Recombinant human CDK2 overexpressed HEK293T lysates were incubated with KY-424 (1 μM-10 μM) or free ATP (1 μM-10 μM) for 30 minutes at 37° C. Subsequently, samples were incubated with 2.5 μM KY-26 for 30 minutes at 37° C. […] Based on this finding, the study was performed using additional concentrations of KY-424 ([…]) or free ATP (400 μM-10 mM) for 30 minutes at 37° C. Again, samples were then incubated with 2.5 μM KY-26 for 30 minutes at 37° C. […] Lysates from 24- (KY-424 competition) and 48-hour transfections (ATP competition) were used.

Nc1ncnc2c1ncn2[C@@H]1O[C@H](COP(=O)(O)OP(=O)(O)OP(=O)(O)O)[C@@H](O)[C@H]1O [ATP, adenosine triphosphate, reference compound]
blockade of KY-26 labeling of proteomes (Jurkat proteomes): concentration-dependent blockade

C#CCNC(=O)c1cc(Nc2cc(C3CC3)[nH]n2)nc(N2CCN(C(=O)c3ccc(S(=O)(=O)n4cnc(-c5ccccc5)n4)cc3)CC2)n1 [KY-26, 6-((5-cyclopropyl-1H-pyrazol-3-yl)amino)-2-(4-(4-((3-phenyl-1H-1,2,4-triazol-1-yl)sulfonyl)benzoyl)piperazin-1-yl)-N-(prop-2-yn-1-yl)pyrimidine-4-carboxamide]
time to near-complete depletion of probe in reaction with p-cresol [1]: ≤ 20 min | reaction of probe with n-butylamine [2]: reduced activity | probe labeling in live cells, dependence on concentration and time (Jurkat cells; 2.5-25 μM, 15-120 min): concentration- and time-dependent probe labeling | proteome reactivity, in-gel fluorescence intensity compared with XO44 (Jurkat cells; live Jurkat cells, 5 μM, 30 min, 37° C.): substantially increased reactivity

CCCNC(=O)c1cc(Nc2cc(C3CC3)[nH]n2)nc(N2CCN(C(=O)c3ccc(S(=O)(=O)n4cnc(-c5ccccc5)n4)cc3)CC2)n1 [KY-424, 6-((5-cyclopropyl-1H-pyrazol-3-yl)amino)-2-(4-(4-((3-phenyl-1H-1,2,4-triazol-1-yl)sulfonyl)benzoyl)piperazin-1-yl)-N-propylpyrimidine-4-carboxamide]
blockade of KY-26 labeling of proteomes (Jurkat proteomes): concentration-dependent blockade | blockade of KY-26 labeling of recombinant human CDK2 (recombinant human CDK2; 40 nM KY-424, 30 minutes at 37° C., HEK293T lysates): approximately 50% | competition of KY-26 ABP labeling of recombinant human CDK2 (recombinant human CDK2; KY-424 1 μM-10 μM, 30 minutes at 37° C.): potently competes
